From patent US20110098257A1, “DERIVATIVES OF 4- OR 5-AMINOSALICYLIC ACID” (ANTIBE THERAPEUTICS INC., priority 2005, published 2011)

Columns and labels:
[1] = system: leukocyte adherence in mesenteric post-capillary venules; test: Leukocyte adherence to the vascular endothelium in vivo (intravital microscopy, aspirin-induced); parameters: species or system Rats
Protocol: Leukocyte adherence was studied using intravital microscopy, as described in detail previously (Wallace et al., (1993) Am. J. Physiol. 265: 993-998, incorporated hereto by reference). Rats were anesthetized with pentobarbital sodium (60 mg/kg i.p.) and cautery incisions were made along the abdominal region. A tracheotomy was performed to facilitate breathing. The rats were placed in a supine position, and a segment of the mesentery was exteriorized through the abdominal incision. The mesentery was carefully placed over an optically clear viewing pedestal that allowed for trans-illumination of a 2-cm^2 segment of tissue. All exposed tissue was covered with saline-soaked gauze to minimize dehydration. The temperature of the pedestal was kept at 37° C. and the mesentery was superfused with warmed bicarbonate-buffered saline (pH 7.4). An intravital microscope (Nikon L25/0.35) and a ×10 eyepiece were used to observe the mesenteric microcirculation. Post-capillary venules with diameters ranging from 20 to 40 μm were selected for the study. A video camera mounted on the microscope (Panasonic™ digital 5000) projected the image onto a monitor, and the images were recorded for playback analysis using a videocassette recorder. Images of the mesenteric microcirculation were recorded 5 minutes prior to aspirin administration (baseline), at the time of aspirin administration (time 0-5) and every 15 minutes for 60 minutes. Leukocyte adherence was blindly quantified from videotaped images of the vessels made over 5-min periods as the number of leukocytes that remained stationary along the vessel wall for 30 s or more (expressed per 100 μm venule length). Groups of rats (at least 5 in each) were pretreated with Compound XXXV (130 mg/kg), Compound XXVII (100 mg/kg), mesalamine (50 mg/kg), or vehicle 60 min prior to aspirin (or vehicle) administration. These drugs were given intragastrically. In some experiments, rats were treated with glibenclamide (10 mg/kg i.p.) or vehicle 30 min prior to administration of these compounds.

[2] = system: visceral pain in response to colorectal distension; test: Rat model of visceral pain perception (colorectal distension, AWR score); format: in vivo, Rats (male, Wistar)
Protocol: A rat model of visceral pain perception, a pre-clinical model of irritable bowel syndrome, was used in the following example. Rats (male, Wistar, 200-250 g, obtained from Charles River, Monza, Italy), were housed in plastic cages and maintained under controlled conditions with 12-hours light/dark cycle with lights on at 7.00 AM. Tap water and standard laboratory chow were freely available. Before experiments, rats were individually trained by spending 2-3 hours per day in a plexiglass cage for 2-3 days. It allowed them to adjust to a movement-restriction environment. Food was withheld for 12 hours before colorectal distension (CRD) recording were performed. Experiments were performed in awake rats and were conducted in a blind manner in that the observer was not aware of the identity of drug administered to each animal.
In the testing day, rats were sedated with ether inhalation and a 2 cm long latex balloon was inserted intrarectally 2 cm from the anal verge and fixed at the base of the tail. The balloon was connected via a double-barreled cannula to a pressure transducer to continuously monitoring the rectal pressure by a computer (PowerLab PC, A.D. Instruments, Milford, Mass., USA) and to a syringe for inflation/deflation of the balloon. The rats were then housed in a small cage (20×8×8 cm) on an elevated Plexiglas™ platform and allowed to wake up and adapt for 1 hour. After recovery from sedation, animals underwent the CRD procedure and behavioral responses were tested. The night before the experiments, the balloons were inflated and left overnight so the latex stretched and the balloons became compliant.
CRD of 20 seconds, performed every 5 minutes, was applied in increment of 0.4 ml starting from 0.4 ml up to 1.6 ml water. To achieve an accurate measurement of the colonic parameters and perception, the distensions were repeated twice for each intensity and data for each animal were averaged for analysis. Each animal underwent a double set of CRD. Twenty minutes after the first sequence of CRD (0.4 mL-1.6 ml water), drugs were administered intraperitoneally (i.p.) and a second set of CRD was performed. Behavioral responses during the first and the second set of CRD were assessed and compared.
Behavioral response to CRD was assessed by measuring the abdominal withdrawal reflex (AWR) using a semiquantitative score (1).
The effects of mesalamine and Compound XXXV on colonic compliance and sensitivity were determined using a total of 8 fasting rats. To investigate whether the administration of mesalamine and Compound XXXV could revert pain induced by CRD, after the first sequence of CRD, […], after which a second set of CRD was repeated.
To determine the effect of mesalamine or Compound XXXV on colonic smooth muscle, the compliance of the colo-rectum during CRD was obtained from intracolo-rectal volume and pressure and expressed as mL/mmHg.
All data are presented as the mean±SEM, with sample sizes of 4 rats/group; statistical comparison of paired data was performed by the Wilcoxon signed rank test. An associated probability (p value) of less that 5% was considered significant.
A rat model of visceral pain perception as described above was used to compare pain perception scores for both Compound XXXV and Compound XXVII with or without glibenclamide, an inhibitor of ATP-sensitive K^+ (KATP) channels.

Nc1ccc(O)c(C(=O)Oc2ccc(-c3cc(=S)ss3)cc2)c1 [Compound XXXV, 5-Amino-2-hydroxy-benzoic acid 4-(5-thioxo-5H-[1,2]dithiol-3-yl)-phenyl ester]
aspirin-induced leukocyte adherence with glibenclamide pretreatment ([1]; glibenclamide 10 mg/kg i.p. 30 min prior to the compound, compound plus aspirin, FIG. 19): glibenclamide reversed the inhibitory effect
aspirin-induced leukocyte adherence, final time period ([1]; minutes 60-65, Compound XXXV 130 mg/kg, Compound XXVII 100 mg/kg, FIG. 20): suppress aspirin-induced leukocyte adherence
aspirin-induced leukocyte adherence, final time period, with glibenclamide pretreatment ([1]; minutes 60-65, glibenclamide 10 mg/kg i.p., FIG. 20): glibenclamide pretreatment to reverse this inhibitor effect
aspirin-induced increase in leukocyte adherence ([1]; pretreatment: Compound XXXV 130 mg/kg or mesalamine 50 mg/kg intragastrically 60 min prior to aspirin, glibenclamide 10 mg/kg i.p., FIG. 19): prevented the aspirin-induced increase in leukocyte adherence
intrarectal pressure ([2]; 100 mg/kg i.p., FIG. 16(b)): successfully reduced intrarectal pressure
perception score (visceral pain in response to colorectal distension) ([2]; 100 mg/kg i.p., second set of CRD vs first, FIG. 15): more effective than mesalamine (and vehicle) in reducing visceral pain
pain perception score after glibenclamide pretreatment ([2]; 0.8 mL colorectal distention, 100 mg/kg, glibenclamide 10 mg/kg i.p. 30 min before, FIG. 17): reversed by pretreatment with glibenclamide
pain perception score ([2]; 0.8 mL colorectal distention, 100 mg/kg, vs vehicle-treated group, FIG. 17): significantly reduced the pain perception
pain perception ([2]; equimolar doses: mesalamine 50, Compound XXXV 130, ADT-OH 80, Compound XXVII 100, 4-HTB 50 mg/kg, vs vehicle-treated group): significantly reduced pain perception
